Consider 3 compounds from patent US20080306073A1, “Antitumor Effect Potentiator, Antitumor Preparation, and Method for Treating Cancer” (priority 2005, published 2008).

Like-named read-outs stand apart in the source and are kept apart here. Marks after values point to notes of the source that are not given here.

Data set [1] has as its system human colon cancer xenograft HCT-15 strain. The data set can be described thus: Action toward a multidrug-resistant strain (Pharmacological Test Example 3). The data set is classed as in vivo, male nude mice BALB/c-nu/nu.
Description: A fragment measuring about 2 mm cubic fragment of the human colon cancer xenograft HCT-15 strain, which expresses P-glycoprotein in large amounts and is resistant to multiple drugs, was subcutaneously implanted on the backs of male nude mice BALB/c-nu/nu. When the average tumor volume (=0.5×major axis (mm)×minor axis (mm)^2) reached about 200 mm^3, the mice were divided into groups (day 0). A TS-1 preparation as prepared in Pharmacological Test Example 1 was orally administered to the mice once a day in an amount as shown in Table 3 from day 1 for 14 consecutive days. The l-OHP preparation was administered only once into the tail vein on day 1 at 10.0 mg/kg immediately before the administration of the TS-1 preparation. The extent of tumor growth inhibition was calculated as in Pharmacological Test Example 1. Using the relative tumor volumes on day 15, the difference in relative tumor volume between the control group and the drug-administered groups was determined according to a Dunnett's test, and the difference between the one which was given either TS-1 or l-OHP and the one which was given TS-1 and l-OHP in combination was evaluated according to Student's t-test.
The test system of data set [2] is human colon cancer xenograft COL-1 strain. To be noted: l-OHP into the tail vein on days 1 and 8.
Protocol: A fragment measuring about 2 mm cubic fragment of the human colon cancer xenograft COL-1 strain was subcutaneously implanted on the backs of male nude mice BALB/c-nu/nu. When the average tumor volume (=0.5×major axis (mm)×minor axis (mm)^2) reached about 170 mm^3, the mice were divided into groups (day 0).
For the determination of antitumor effect, the ratio of the tumor volume upon grouping (day 0) to the tumor volume on day 15 was calculated to obtain a relative tumor volume. The extent of tumor growth inhibition was determined using the average relative tumor volumes of the drug-administered groups and the control group. Using the relative tumor volumes on the test day, the statistical significance of the difference in relative tumor volume between the control group and the one which was given the pharmaceutical agents was analyzed according to a Dunnett's test; and the statistical significance of the difference in relative tumor volume between the one which was given TS-1 and l-OHP in combination and the one which was given capecitabine and l-OHP in combination was analyzed according to Student's t-test. The extent of body weight change between the mice on day 0 and the mice on day 15 was used as an index of systemic toxicity of the pharmaceutical preparations.
Data set [3] deals with human colon cancer xenograft KM20C strain. Put plainly: Antitumor effect on human colon cancer xenograft KM20C in nude rats (Pharmacological Test Example 1). To be noted: TS-1 12 or UFT 24 mg/kg/day as tegafur (+ LV 20) po 14 days, l-OHP 10 mg/kg iv day 1. (A xenograft is tissue or cells of one species grown in another, often human tumour cells in immunodeficient mice.)
Description: A tegafur/gimeracil/oteracil potassium compound pharmaceutical agent (tegafur/gimeracil/oteracil potassium molar ratio=1:0.4:1, hereinafter sometimes referred to as TS-1), a tegafur/uracil compound pharmaceutical agent (tegafur/uracil molar ratio=1:4, hereinafter sometimes referred to as UFT), and d,l-calcium folinate were independently dissolved or suspended in 0.5% hydroxypropylmethyl cellulose (HPMC) solutions, and pharmaceutical preparations were formulated so as to allow administration thereof in a final dosage of 10 mL/kg.
l-OHP was dissolved in 5% aqueous glucose solution (Otsuka Glucose, manufactured by Otsuka Pharmaceutical Factory Inc.), thereby giving an l-OHP preparation.
A fragment measuring about 2 mm cubic fragment of the human colon cancer xenograft KM20C strain was subcutaneously implanted on the backs of male nude rats F344/NJcl-rnu. When the average tumor volume (=0.5×major axis (mm)×minor axis (mm)^2) reached about 200 mm^3, the rats were divided into groups (day 0).
The TS-1 preparation or the UFT+LV preparation prepared above was orally administered once a day in amounts presented in Table 1 from the day after grouping (day 1) for 14 consecutive days. The l-OHP preparation was administered into the tail vein on day 1 at 10 mg/kg immediately before the administration of the aforementioned preparations.
The ratio of the tumor volume upon grouping (day 0) to the tumor volume on day 15 was regarded as the relative tumor volume: Tumor volume on day 15/Tumor volume on day 0
The extent of tumor growth inhibition (%) was calculated using the average relative tumor volume of the drug-administered groups and the average relative tumor volume of the control group:
[1−(Relative tumor volume of drug-administered group)/(Relative tumor volume of tumor-bearing control group)]×100 (%)
The difference in body weight between rats on day 0 and rats on day 15 presented as a ratio (extent of body weight change) was used as an index of systemic toxicity of the pharmaceutical preparation: […]
The test system of data set [4] is 5-FU-resistant strain of the human colon cancer xenograft KM12C strain. The data set can be described thus: Action toward a 5-FU-resistant strain (Pharmacological Test Example 2). To be noted: TS-1 8.3 mg/kg/day as tegafur po 9 days, l-OHP 8.3 mg/kg iv day 1.
Protocol: A fragment measuring about 2 mm cubic fragment of a 5-FU-resistant strain of the human colon cancer xenograft KM12C strain established by the applicant was subcutaneously implanted on the backs of male nude mice BALB/c-nu/nu. When the average tumor volume (=0.5×major axis (mm)×minor axis (mm)^2) reached about 200 mm^3, the mice were divided into groups (day 0). […] The ratio of the tumor volume on day 0 to the tumor volume on day 10 was calculated to obtain a relative tumor volume.
The test system of data set [5] is human colon cancer xenograft COL-1 strain. To be noted: TS-1 where given 6.9 mg/kg as tegafur po 14 days; for Relative tumor volume (Mean): day 15/day 0; for Extent of tumor growth inhibition (%): day 15; for Extent of body weight change (%): day 15 vs day 0.
Protocol: A fragment measuring about 2 mm cubic fragment of the human colon cancer xenograft COL-1 strain was subcutaneously implanted on the backs of male nude mice BALB/c-nu/nu. When the average tumor volume (=0.5×major axis (mm)×minor axis (mm)^2) reached about 125 mm^3, the mice were divided into groups (day 0).
For the determination of antitumor effect, the ratio of the tumor volume upon grouping (day 0) to the tumor volume on day 15 was calculated to obtain a relative tumor volume. The extent of tumor growth inhibition was determined using the average relative tumor volumes of the drug-administered groups and the control group.
The extent of body weight change between the mice on day 0 and the mice on day 15 was used as an index of systemic toxicity of l-OHP.
Data set [6] shares this test system. The data set can be described thus: Preliminary test: maximum tolerable dose of capecitabine (Pharmacological Test Example 5). It counts as in vivo, male nude mice BALB/c-nu/nu. To be noted: capecitabine po once a day 14 days at 240, 360 or 540 mg/kg with l-OHP 4.2 mg/kg/day iv days 1 and 8.
Protocol: A fragment measuring about 2 mm cubic fragment of the human colon cancer xenograft COL-1 strain was subcutaneously implanted on the backs of male nude mice BALB/c-nu/nu. When the average tumor volume (=0.5×major axis (mm)×minor axis (mm)^2) reached about 190 mm^3, the mice were divided into groups (day 0). Capecitabine suspended in 0.5% HPMC solution was orally administered to the mice once a day at 240, 360, or 540 mg/kg from the day after grouping for 14 consecutive days. l-OHP dissolved in 5% aqueous glucose solution was administered into the tail vein on days 1 and 8 at 4.2 mg/kg/day immediately before the administration of the Capecitabine. The difference in body weight between the mice on day 0 and the mice on day 15 presented as a ratio and the occurrence of death were used as indices of systemic toxicity of capecitabine.
Data set [7] deals with 5-FU decomposition. To be noted: compared with uracil; cited from earlier work.
[8] abbreviates: l-OHP 2.9 mg/kg iv days 1 and 8.
Where [9] appears, read: l-OHP 3.5 mg/kg iv days 1 and 8.
[10] abbreviates: l-OHP 4.2 mg/kg iv days 1 and 8.
Where [11] appears, read: l-OHP 5.0 mg/kg iv days 1 and 8.

`O=C([O-])C(=O)[O-].[NH-][C@@H]1CCCC[C@H]1[NH-].[Pt+4]` (relative stereo) [l-OHP, cis-oxalate(1R,2R-diaminocyclohexane)platinum(II)]: the “Relative tumor volume (Mean)” value in data set [1] (day 15/day 0, TS-1 10 mg/kg/day as tegafur po 14 days, l-OHP 10 mg/kg iv once day 1) is reported as 4.33; in data set [3] (day 15/day 0), 4.64; in data set [4] (day 10/day 0), 7.97; in data set [5] (setting [8]) it was 5.06 ^§; in data set [5] (setting [9]) it was 4.54 ^§, *; in data set [5] (setting [10]), 4.43 ^§, **. Moreover, the “Relative tumor volume (Mean)” value in data set [5] (setting [11]) is reported as 4.41 ^§, **. Besides, the “Extent of tumor growth inhibition (%)” value in data set [1] (day 15, TS-1 10 mg/kg/day as tegafur po 14 days, l-OHP 10 mg/kg iv once day 1) worked out at 4.3%; in data set [3] (day 15) it was 20.1%; in data set [4] (day 10), 16.1%; in data set [5] (setting [8]) it was 11.9%; in data set [5] (setting [9]) it was 21.0%; in data set [5] (setting [10]), 23.0%. Also, the “Extent of tumor growth inhibition (%)” value in data set [5] (setting [11]) worked out at 23.3%. Moreover, the “antitumor effect on the multidrug-resistant tumor (in words)” value in data set [1] (l-OHP alone, 10 mg/kg iv once day 1) is “barely shows any antitumor effect”. Moreover, the maximum tolerable dose in data set [2] is 4.2 mg/kg/day. Moreover, the “Extent of body weight change (%)” value is on record as 0.9% in data set [3] (day 15 vs day 0); −8.0% in data set [4] (day 10 vs day 0); −18.0% in data set [5] (setting [8]); −20.6% in data set [5] (setting [9]); −19.0% in data set [5] (setting [10]); −16.8% in data set [5] (setting [11]). Moreover, the “Number of dead animal” value in data set [5] (setting [8]), in data set [5] (setting [9]), in data set [5] (setting [10]) and in data set [5] (setting [11]) was 0 in each case.

For the compound `CCCCCOC(=O)Nc1nc(=O)n([C@@H]2O[C@H](C)[C@@H](O)[C@H]2O)cc1F` [capecitabine], the “maximum tolerable dose at which death due to toxicity is not observed” value in data set [6] is 360 mg/kg/day.

Take `Oc1cc(O)c(Cl)cn1` [gimeracil, 2,4-dihydroxy-5-chloropyridine]: in data set [7], the “5-FU decomposition inhibitory action relative to that of uracil” value is on record as “about 200 times”.
